# Reference: US20240299698A1, “PREVENTION AND TREATMENT OF POST-OPERATIVE COGNITIVE DYSFUNCTION (POCD)” (Noetix Pharma LLC, priority 2022, published 2024)
# Assays:
# mouse model of (POCD) [1] = experiment: Fear conditioning cued testing in laparotomy mouse model of POCD; assay type: in vivo, Male C57BI/6 mice; details: PSD3
# Text: (§1) To induce POCD, mice were anesthetized with isoflurane and maintained at a surgical plane of anesthesia (2-2.5%). The abdomen was shaved and cleaned/disinfected with both betadine and ethanol (70%). A 1.5 cm vertical incision was made along the midline of the abdomen, perforating the skin and the peritoneal cavity. A sterile blunt probe was inserted into the cavity, and the abdominal viscera and musculature were manipulated for five minutes. Abdominal muscles and skin were sutured, polysporin and topical lidocaine were applied to the incision site, and buprenorphine (0.1 mg/kg s.c.) was administered. Animals were placed into a clean, pre-warmed home cage for recovery and housed singly thereafter.
# (§2) Fear conditioning is a commonly used test of associative learning where a […] stimulus is paired with an aversive unconditioned stimulus, resulting in a freezing response that can be subsequently quantified. Training occurred on the day prior to surgery, context testing on PSD1 (i.e., 2 days after training) and PSD3 (i.e., 4 days after training), and cued testing on PSD3 at a time point three hours after the final context test. For training and context testing, mice were placed in an operant chamber (Med Associates). For cued testing, mice were placed into a novel arena with novel external environment and scent.
# (§3) Fear conditioning training was performed to generate an association between a neutral “conditional” stimulus (80 dB tone) with an aversive “unconditional” stimulus (0.4 mA shock). Before training, the system was tested to confirm proper operation of the shock and tone. During training, the testing environment was kept quiet and well controlled. Temperature and humidity levels were kept constant and the experimenter was not visible from the operant chamber, which was cleaned between animals. The training protocol was as follows: 1. Each mouse was habituated to the testing room for 20 minutes. 2. Video recording was initiated and the animal's ID card was recorded. 3. Each mouse was placed into the operant chamber and the training protocol was implemented as follows: a. 120 seconds; no stimuli (habituation to the chamber); b. 20 seconds, tone presentation (80 dB); c. 20 seconds, no stimuli (trace delay period); d. 2 seconds, foot shock (0.4 mA); e. 90 seconds, no stimuli (intertrial interval); f. repeat steps a-d followed by a final 30 second no stimuli period. 4. The mouse was returned to its home cage.
# The purpose of cued testing is to evaluate cued memory for an aversive stimulus. […]
# Cued testing was performed as follows: 1. […] Video recording was initiated and the animal's ID card was recorded. […]
# [2] = Macias-Barragan J, et al.; cited from earlier work
# mouse model of (POCD) [3] = experiment: Fear conditioning context testing in laparotomy mouse model of POCD; assay type: in vivo, Male C57BI/6 mice
# Text: as §1, §2, §3
# The purpose of context testing is to evaluate context memory for an aversive environment. Materials for this process included the operant testing chamber, a video recorder, a stopwatch, and data recording sheets. During the testing process the testing environment was kept quiet and well controlled with constant temperature and humidity levels. It was ensured that the experimenter was not visible from the operant chamber. The chamber was cleaned between animals.
# Context testing was performed as follows: 1. The mouse was habituated to the testing room for 15 minutes. 2. Video recording was initiated and the animal's ID card recorded. 3. The mouse was placed in the operation chamber and allow ed 270 seconds exploration time. 4. The mouse was returned to its home cage.
# Fear conditioning context testing was performed on PSD1 and PSD3, with exposure to the contextual environment presented at the equivalent time of day to the training period in the same arena as was used for training. On PSD3, following the final contextual testing, the cued testing phase was performed. […]
smiles,measurement,setting,value
"Cc1ccc(=O)n(-c2ccccc2)c1 [pirfenidone, 5-methyl-1-phenyl-2-(1H)-pyridone]",freezing during cued testing (overall measures),"mouse model of (POCD) [1]; Acute (400 mg/kg p.o. single dose) compared to Chronic pirfenidone and Disease controls, longer freeze times",increased mean performance
same,"freezing time, cued testing, post-tone period","mouse model of (POCD) [1]; Acute compared to Disease Control mice, longer freeze times",increased mean performance
same,freezing during cued testing (overall measures),mouse model of (POCD) [1]; Chronic (400 mg/kg initial; 200 mg/kg p.o. 1x/day),performed more similarly to Disease Control
same,"freezing time, cued testing, post-tone period","mouse model of (POCD) [1]; Chronic vs Normal Controls, p=0.088",trend toward decreased freezing times
same,crossing of the blood brain barrier,[2],can cross the blood brain barrier
same,"time spent freezing, contextual test, within-group PSD3 compared to PSD1","mouse model of (POCD) [3]; Acute (400 mg/kg p.o. single presurgical dose), p=0.009, paired t-test",less time freezing
same,"time spent freezing, contextual test, within-group PSD3 compared to PSD1","mouse model of (POCD) [3]; Chronic (400 mg/kg initial; 200 mg/kg p.o. 1x/day), p=0.942, paired t-test",no difference between test presentation days
same,"time spent freezing, contextual test","mouse model of (POCD) [3]; PSD1, Acute (400 mg/kg p.o. single presurgical dose) compared to Chronic pirfenidone animals, p=0.027, LSD post-hoc",increased freezing
same,"time spent freezing, contextual test","mouse model of (POCD) [3]; PSD3, Acute (400 mg/kg p.o. single presurgical dose) vs Normal Controls",performed equivalently to Normal Controls
same,"time spent freezing, contextual test, between groups","mouse model of (POCD) [3]; PSD3, Acute and Chronic groups and controls, p=0.671, One-way ANOVA",no statistical difference between groups
